Assay results taken from US20120128654A1, “Allantoin Administration for the Treatment of Neurodegenerative Disease and Neurotrauma” (UNIVERSITY OF CINCINNATI, priority 2009, published 2012).
“Also recorded” adds a separate entry of the source.

Columns and labels:
nigral THir neurons = assay: Unbiased stereological counts of THir cells in the substantia nigra after striatal 6-OHDA; assay type: in vivo, Sprague Dawley rats; conditions: for number of surviving THir neurons in the lesioned SN relative to the intact side: s.c. pellets 3 days prior to intrastriatal 6-OHDA, 6 weeks post-6-OHDA (experiment 1); for protection of nigral THir neurons against striatal 6-OHDA infusion: s.c. pellets, 6 weeks post-6-OHDA, vs control
Description: Rats were anesthetized prior to surgery with Equi-Thesin (0.3 ml/100 g body weight i.p.; chloral hydrate 42.5 mg/ml+sodium pentobarbital 9.72 mg/ml), their heads shaved, and then they were placed in a stereotaxic frame. Their skin was swabbed with Betadyne followed by 70% ETOH. The scalp was then opened to expose the skull. Two 1 mm holes were drilled into the skull and rats were injected in two sites in the striatum with 6-OHDA (MP Biomedicals, Solon, Ohio; 5 μg/μl 6-OHDA in 0.2% ascorbic acid, 0.9% saline solution). The coordinates for these injections were AP −1.6 mm, ML +2.4 mm, DV −4.2 mm and AP −0.2 mm, +ML 2.6 mm, DV −7.0 mm. The needle was zeroed at the skull directly above the injection site in order to target the DV coordinate. For each injection, the needle was lowered slowly to the injection site and 1 minute elapsed before injection commenced, 6-OHDA was injected at 0.5 μl/minute and at the end of the injection the needle was held in place for an additional 2 minutes prior to retraction. The wound area was cleaned with Betadine solution and the scalp was closed with surgical wound clips. This lesion paradigm results in a progressive loss of TH phenotype and frank DA cell death.
Animals were deeply anesthetized (60 mg/kg, pentobarbital, i.p.) and perfused intracardially with warm 0.9% saline containing 1 ml/L 10,000 USP heparin followed by ice-cold 0.9% saline. For immunoshistochemistry brains were removed, post fixed for 24 hours in 4% paraformaldehyde and transferred to 30% sucrose in 0.1M PO4 buffer. For determination of purine levels brains were immediately removed and flash frozen in 3-methyl butane. Brains were stored at −80° C. until analysis.
Brains were frozen on dry ice and sectioned at a 40 μm thickness using a sliding microtome. Every sixth section through the SN was processed for labeling with antisera against TH. Following blocking in 10% normal goat serum, tissue was incubated in primary antisera directed against TH (Chemicon MAB318, mouse anti TH 1:4,000) overnight at room temperature. Following primary incubation, sections were incubated in biotinylated secondary antisera against mouse IgG (Chemicon AP124B, 1:400) followed by the Vector ABC detection kit employing horseradish peroxidase (Vector Laboratories, Burlingame, Calif.). Antibody labeling was visualized by exposure to 0.5 mg/ml 3,3′ diaminobenzidine (DAB) and 0.03% H2O2 in Tris buffer. Sections were mounted on subbed slides, dehydrated to xylene and coverslipped with Cytoseal (Richard-Allan Scientific, Waltham, Mass.).
Unbiased stereological counts of THir cells were performed using a BX52 Olympus microscope (Olympus America Inc.) interfaced with Microbrightfield stereological software and a Microfire CCD camera (Optronics, Goleta, Calif.). Utilizing 2 μm guard zones and a 50 μm×50 μm counting frame a grid size of 112 μm×183 μm was employed to assure that all coefficient of error values were ≦0.10. Using the optical fractionator principle, the regions of interest were individually outlined under a low magnification (1.25×). Using a 60× magnification lens with a 1.4 N/A the section thickness was empirically determined by first bringing the top of the section into focus and then using Microbrightfield software to step through the z-axis in 1 μm increments until the very bottom of the section was in focus. […]

[1] = in vivo; cited from earlier work
[2] = system: 6-OHDA induced forelimb akinesia; assay: Cylinder testing for forelimb akinesia after intrastriatal 6-OHDA; assay type: in vivo, Sprague Dawley rats; conditions: cylinder test, s.c. pellets implanted 3 days prior to intrastriatal 6-OHDA, four and six weeks post lesion, vs control
Text: Continuous s.c. delivery of INO, KO and ALL was achieved by implanting matrix-driven pellets into the s.c. space. Animals were anesthetized with isofluorane and prepared for surgery using sterile procedures. A small incision was made posterior to the scapula and the pellet was placed in the subscapular space contralateral to the incision. This placement technique prevents migration of the pellet towards the incision, thereby reducing the incidents of rejection. Finally, the incision was closed using aseptic procedures. To determine the roles of UA and allantoin in inosine-mediated neuroprotection, animals were treated with the urate oxidase inhibitor KO. This approach has been widely used to prevent the enzymatic metabolism of UA to allantoin in other rodent models of disease.
Rats were anesthetized prior to surgery with Equi-Thesin (0.3 ml/100 g body weight i.p.; chloral hydrate 42.5 mg/ml+sodium pentobarbital 9.72 mg/ml), their heads shaved, and then they were placed in a stereotaxic frame. Their skin was swabbed with Betadyne followed by 70% ETOH. The scalp was then opened to expose the skull. Two 1 mm holes were drilled into the skull and rats were injected in two sites in the striatum with 6-OHDA (MP Biomedicals, Solon, Ohio; 5 μg/μl 6-OHDA in 0.2% ascorbic acid, 0.9% saline solution). […]
Non-drugged, spontaneous use of the forepaws was measured in rats as described by Schallert (Schallert, T., Behavioral tests for preclinical intervention assessment, NeuroRx 3:497-504 (2006)) prior to pellet and intrastriatal 6-OHDA and at both four weeks and six weeks after 6-OHDA. […] Videotapes were analyzed by a rater blinded to treatment. The number of times the rat used its left, right, or both paws for weight bearing in a given trial was determined and noted. […]
In the first experiment, rats were divided into four different groups INO (n=6), INO/potassium oxonate (KO blocks conversion of UA to ALL) (n=6), ALL (n=6), and sham pellet implantation. […] In experiment 1, rats were assessed for forelimb akinesia prior to, and […] and 6 weeks after intrastriatal 6-OHDA infusion. […]

In the case of `NC(=O)NC1NC(=O)NC1=O` (centres unmarked) [allantoin], the “number of surviving THir neurons in the lesioned SN relative to the intact side” value (nigral THir neurons) is listed as 61%±7.9%, the “protection of nigral THir neurons against striatal 6-OHDA infusion” value (nigral THir neurons) is listed as “significantly protected” and the antioxidant properties [1] is listed as “antioxidant properties in vivo”. The forelimb akinesia [2] was “reduced at four and six weeks post-lesion; also recorded: significantly attenuated”.
In the case of `OC[C@H]1O[C@@H](n2cnc3c(O)ncnc32)[C@H](O)[C@@H]1O` [inosine], the “number of surviving THir neurons in the lesioned SN relative to the intact side” value (nigral THir neurons) is reported as 56%±9.0%, the “protection of nigral THir neurons against striatal 6-OHDA infusion” value (nigral THir neurons) is reported as “significantly protected” and the forelimb akinesia [2] is reported as “significantly attenuated”. The forelimb akinesia ([2]; listed as Inosine) was “significantly ameliorated forelimb akinesia six weeks post lesion”.
